Measurements: patent US7208309B2, “Inhibitor-resistant HCV NS3 protease” (priority 2002, dated 2007)
Where two headings read alike, the source gives them in different places. Numbered stars: 1 amine (or outer) side, 2 acyl side, 3 side chain; on linkers, the order of the positions; unused ones are H or OH. Square brackets hold non-standard residues; d marks the D form. Peptide text beside a SMILES is read from it. * marks the point of attachment. Hyp(2-Ph-quinolin-4-yl) = O=C(O)[C@@H]1C[C@@H](Oc2cc(-c3ccccc3)nc3ccccc23)CN1; X1 = C=CC1C[C@]1(N[*:1])C(=O)[*:2]; Hyp = O=C(O)[C@@H]1C[C@@H](O)CN1; Chg = N[C@H](C(=O)O)C1CCCCC1; Tle = CC(C)(C)[C@H](N)C(=O)O; Nva = CCC[C@H](N)C(=O)O; Bn = c1ccc(C*)cc1

Tests used:
[1] = target: T1, NS3-NS4A protein D168V (Hepatitis C virus genotype 1b, UniProt Q9WMX2, D1194V); assay: In vitro enzyme assay, Ki, full length NS3/NS4A protein D168V; format: biochemical, HCV genotype 1b
T1 construct: TEV protease cleavage site (N); made in house; host or cells: E. coli (pET11a)
Text: (§1) DNA encoding the NS3-NS4A coding region of HCV genotype 1b, that includes a 28-residue N-terminal sequence containing a hexahistidine tag and a TEV protease cleavage (Pause, A. et al. (2003) J. Biol. Chem. 278: 20374–20380) was amplified by PCR and then subcloned into the pET11a bacterial expression vector. Amino acid substitutions A156T and D168V were introduced into the NS3-NS4A coding region using standard site-directed mutagenesis procedures.
(§2) The NS3 protease domain (harboring A156T or D168V or R155Q mutations) were expressed in E. coli and purified as previously described (LaPlante, S. R. et al (1999) J. Biol. Chem. 274: 18618–18624). The NS3-NS4A proteins with either A156T or D168V mutation were also expressed in E. coli and the cell paste was resuspended in 5 mL of lysis buffer (50 mM sodium phosphate, pH 7.5, 20% glycerol, 1 mM EDTA, 0.5% Triton X-100, 0.5 M NaCl) per gram of cells, treated with DNase I, then clarified by a 30-min centrifugation at 150,000×g; the supernatant was diluted 2-fold in 50 mM sodium phosphate, pH 7.5, 0.5 M NaCl and imidazole was added to a final concentration of 25 mM. The NS3-NS4A complex solution was purified by successive steps on a Hi-Trap Ni^+2-chelating column, and poly(U)-Sepharose affinity column previously equilibrated in 50 mM sodium phosphate, pH 7.0, 10% glycerol, 0.2 M NaCl, 0.05% n-dodecyl-β-D-maltoside, 10 mM β-mercaptoethanol. The enzyme was eluted in the same buffer containing 2 M NaCl. The isolated enzymes were stored at −80° C.
(§3) Ki determination—The inhibition constant (Ki) was determined using the depsipeptide fluorogenic substrate anthranilyl-DDIVPAbu[C(O)—O]AMY(3-NO2)TW-OH. The cleavage reaction was continuously monitored at 23° C. on a BMG POLARstar® Galaxy fluorometer, equipped with excitation and emission filters of 320 and 405 nm respectively. […] IC50's were obtained from a non-linear curve fit using the Hill model applied to the % inhibition-concentration data and calculated through the use of SAS (Statistical Software System, SAS Institute Inc., Cary, N.C.).

[2] = target: T2, NS3 protease (1-180) R155Q-NS4A peptide complex (Hepatitis C virus genotype 1b, UniProt Q9WMX2, R1181Q); assay: In vitro enzyme assay, Ki, NS3 protease-NS4A peptide complex R155Q; format: biochemical, HCV; conditions: calculated Ki from IC50
T2 construct: the NS3 protease (1–180) coding region for wild-type; made in house; host or cells: E. coli
Text: (§4) Alternatively, the NS3 protease (1–180) coding region for wild-type with the sequence ASKKKK at the C-terminus was cloned into a bacterial expression vector and amino acid substitutions A156T, D168V and R155Q were introduced as described above.
(§5) The NS3 protease domain (harboring A156T or D168V or R155Q mutations) were expressed in E. coli and purified as previously described (LaPlante, S. R. et al (1999) J. Biol. Chem. 274: 18618–18624). […]
as §3

[3] = target: T3, NS3 protease (1-180) D168V-NS4A peptide complex (Hepatitis C virus genotype 1b, UniProt Q9WMX2, D1194V); assay: In vitro enzyme assay, Ki, NS3 protease-NS4A peptide complex D168V; format: biochemical, HCV; conditions: calculated Ki from IC50
T3 construct: the NS3 protease (1–180) coding region for wild-type; made in house; host or cells: E. coli
Text: as §4, §5, §3

[4] = system: NS3 A156T mutant HCV subgenomic replicon in Huh-7 cells; assay: Inhibitor EC50 in NS3 A156T mutant replicon cell line; format: cell-based; conditions: Hepatitis C virus, Huh-7, read-out: EC50, A156T
Text: (§6) Specific isogenic HCV subgenomic replicon cDNAs individually containing only one of the inhibitor-resistant mutations, i.e. (in this example: A156T; or A156V; or D168V; or D168G) were cloned and corresponding in vitro transcribed RNA of these modified bi-cistronic replicons were generated. The mutant-encoding RNAs were used to construct mutant-containing replicon cell lines in naïve Huh-7 cells as described previously for other HCV replicons. […] They were also used to determine the level of inhibition of the mutant inhibitor-resistant cell lines in the presence of an unrelated HCV NS5B polymerase inhibitor or alpha-interferon. Using the assay described in WO 03/010141 (Example 48) the EC50 of each inhibitor was determined using the mutant cell lines.

[5] = system: NS3 D168G mutant HCV subgenomic replicon in Huh-7 cells; assay: Inhibitor EC50 in NS3 D168G mutant replicon cell line; format: cell-based; conditions: Hepatitis C virus, Huh-7, read-out: EC50, D168G
Text: as §6

[6] = target: T4, NS3 protease (1-180) A156T-NS4A peptide complex (Hepatitis C virus genotype 1b, UniProt Q9WMX2, A1182T); assay: In vitro enzyme assay, Ki, NS3 protease-NS4A peptide complex A156T; format: biochemical, HCV; conditions: calculated Ki from IC50
T4 construct: the NS3 protease (1–180) coding region for wild-type; made in house; host or cells: E. coli
Text: as §4, §5, §3

[7] = system: WT HCV subgenomic replicon in Huh-7 cells; assay: Inhibitor EC50 in WT replicon cell line; format: cell-based; conditions: Hepatitis C virus
[8] = target: T5, NS3-NS4A protein WT (Hepatitis C virus genotype 1b, UniProt Q9WMX2); assay: In vitro enzyme assay, Ki, full length NS3/NS4A protein WT; format: biochemical, HCV genotype 1b
T5 construct: TEV protease cleavage site (N); made in house; host or cells: E. coli (pET11a)
Text: as §1, §2, §3

[9] = system: NS3 D168V mutant HCV subgenomic replicon in Huh-7 cells; assay: Inhibitor EC50 in NS3 D168V mutant replicon cell line; format: cell-based; conditions: Hepatitis C virus, Huh-7, read-out: EC50, D168V
Text: as §6

[10] = system: bicistronic subgenomic HCV RNA replicon (S22.3 cell line); assay: HCV RNA replicon cell culture EC50 of the inhibitors used for selection; format: cell-based; conditions: EC50 stated for the inhibitor used in resistance selection, replicon cells
Text: The method described by Lohmann et al. (1999, Science 285:110) was used to mimic the replication of subgenomic HCV RNA in a system that is dependent on the function of HCV non-structural proteins and enzymes. This HCV RNA replicon system incorporates two cistrons: one encoding the HCV non-structural region and the second encoding a selectable neomycin resistant marker (i.e. gene encoding neomycin phosphotransferase). As one of skill in the art will appreciate, the second cistron may encode any marker suitable for selection purposes. Cell lines harboring such bicistronic, subgenomic HCV RNA, such as the S22.3 cell line, are described by Kukolj and Pause (see WO 02/052015, the contents of which are hereby incorporated by reference). These cell lines are useful in evaluating the efficacy and potency of potential anti-HCV therapeutics that inhibit one or more of the HCV non-structural proteins.
As shown, Huh-7 cells (8×10^6 cells) were transfected with the bicistronic subgenomic HCV RNA using transfection methods well-established in the art. Transfected Huh-7 cells were selected by growth in neomycin-containing media (0.5 mg/ml neomycin). Specifically, transfected cells replicate the RNA that produces neomycin phosphotransferase thereby rendering the cells resistant to the cytotoxic effect of neomycin. Mutated HCV replicons as described in WO 02/052015 can also be used in accordance with the present method to increase RNA replication and efficiency of replicon establishment.
inhibitor A=cyclopropa[e]pyrrolo [1,2-a][1,4]diazacyclopentadecine-14a(5H)-carboxylic acid, 6-[[(cyclopentyloxy) carbonyl]amino]-1,2,3,6,7,8,9,10,11,13a, 14,15,16,16a-tetradecahydro-2-[[7-methoxy-2-[2-[(1-methylethyl)amino]-4-thiazolyl]-4-quinolinyl]oxy]-5,16-dioxo-, (2R,6S, 12Z, 13aS, 14aR, 16aS), which is described as compound #822 in WO 00/59929, the contents of which is hereby incorporated by reference. The colonies were grown in the presence of increasing concentrations of this inhibitor (EC50 of 2 nM) ranging from 2 nM to 2000 nM.

[11] = target: T6, NS3 protease (1-180) WT-NS4A peptide complex (Hepatitis C virus genotype 1b, UniProt Q9WMX2); assay: In vitro enzyme assay, Ki, NS3 protease-NS4A peptide complex WT; format: biochemical, HCV
T6 construct: the NS3 protease (1–180) coding region for wild-type; made in house; host or cells: bacterial expression vector (E. coli)
Text: as §4, §5, §3

[12] = system: NS3 A156V mutant HCV subgenomic replicon in Huh-7 cells; assay: Inhibitor EC50 in NS3 A156V mutant replicon cell line; format: cell-based; conditions: Hepatitis C virus, Huh-7, read-out: EC50, A156V
Text: as §6

[13] = target: T7, NS3-NS4A protein A156T (Hepatitis C virus genotype 1b, UniProt Q9WMX2, A1182T); assay: In vitro enzyme assay, Ki, full length NS3/NS4A protein A156T; format: biochemical, HCV genotype 1b
T7 construct: TEV protease cleavage site (N); made in house; host or cells: E. coli (pET11a)
Text: as §1, §5, §3

With `COc1ccc2c(O[C@@H]3C[C@H]4C(=O)N[C@]5(C(=O)O)C[C@H]5/C=C\CCCCC[C@H](NC(=O)OC5CCCC5)C(=O)N4C3)cc(-c3csc(NC(C)C)n3)nc2c1` [inhibitor A, cyclopropa[e]pyrrolo [1,2-a][1,4]diazacyclopentadecine-14a(5H)-carboxylic acid, 6-[[(cyclopentyloxy)carbonyl]amino]-1,2,3,6,7,8,9,10,11,13a, 14,15,16,16a-tetradecahydro-2-[[7-methoxy-2-[2-[(1-methylethyl)amino]-4-thiazolyl]-4-quinolinyl]oxy]-5,16-dioxo-, (2R,6S, 12Z, 13aS, 14aR, 16aS)] the Ki ([1]; calculated Ki from IC50, read-out: Ki, D168V (calculated Ki from IC50)) was 520 nM, the Ki [2] was 220 nM and the Ki [3] was 970 nM. It also gave an EC50 [4] of 547 nM, an EC50 [5] of 23 nM and a Ki [6] of 800 nM. It also gave an EC50 [7] of 0.9 nM, a Ki [8] of 1.6 nM and an EC50 [9] of 735 nM. The EC50 ([10]; Hepatitis C virus) was 2 nM, the Ki [11] was 5.6 nM and the EC50 [12] was 324 nM. It also gave a Ki ([13]; calculated Ki from IC50, read-out: Ki, A156T (calculated Ki from IC50)) of 870 nM.
`COc1ccc2c(O[C@@H]3C[C@H]4C(=O)N[C@]5(C(=O)O)C[C@H]5/C=C\CCCCC[C@H](NC(=O)OC(C)(C)C)C(=O)N4C3)cc(-c3csc(NC(C)=O)n3)nc2c1` [inhibitor C, Cyclopropa[e]pyrrolo[1,2-a][1,4]-diazacyclopentadecine-14a(5H)-carboxylic acid, 2-[[2-[2-(acetylamino)-4-thiazolyl]-7-methoxy-4-quinolinyl]oxy]-6-[[(1,1-dimethylethoxy)carbonyl]amino]-1,2,3,6,7,8,9,10,11,13a,14,15,16,16a-tetradecahydro-5,16-dioxo-, (2R,6S, 12Z, 13aS, 14aR, 16aS)-] showed an EC50 [10] of 5 nM.
Compound `CCC[C@H](NC(=O)[C@@H]1C[C@@H](OCc2ccccc2)CN1C(=O)[C@@H](NC(=O)[C@@H](NC(=O)[C@@H](CCC(=O)O)NC(=O)[C@H](CC(=O)O)NC(C)=O)[C@@H](C)CC)C(C)C)C(=O)O` [Compound E] (Ac-D[dE]IV[Hyp](Bn)[Nva]-OH) has a Ki ([1]; read-out: Ki, D168V) of 8100 nM and a Ki [8] of 1600 nM.
`C=C[C@@H]1C[C@]1(NC(=O)[C@@H]1C[C@@H](Oc2cc(-c3csc(NC(C)=O)n3)nc3cc(OC)ccc23)CN1C(=O)[C@@H](NC(=O)OC1CCCC1)C(C)(C)C)C(=O)O` [inhibitor B, cyclopropane carboxylic acid, N-[(cyclopentyloxy)carbonyl]-3-methyl-L-valyl-(4R)-4-[[2-[2-(acetylamino)-4-thiazolyl]-7-methoxy-4-quinolinyl]oxy]-L-prolyl-1-amino-2-ethenyl-, (1R,2S)-] showed an EC50 [10] of 40 nM.
Work on `C=CC1C[C@]1(NC(=O)[C@@H]1C[C@@H](Oc2cc(-c3ccccc3)nc3ccccc23)CN1C(=O)[C@@H](NC(=O)[C@@H](NC(=O)[C@@H](CCC(=O)O)NC(=O)[C@H](CC(=O)O)NC(C)=O)C1CCCCC1)C(C)(C)C)C(=O)O` (some centres unmarked) [Compound F] (Ac-D[dE][Chg][Tle][Hyp(2-Ph-quinolin-4-yl)][X1]-OH) yielded a Ki ([1]; read-out: Ki, D168V) of 12 nM, a Ki [8] of 0.047 nM and a Ki ([13]; read-out: Ki, A156T) of 29 nM.
